Test results: US6528494B2 (priority 1996, dated 2003)
Structures can show the parent of a compound that is named as a salt.

Assays:
[1] = system: lung eosinophil accumulation; experiment: Antigen-induced lung eosinophil accumulation in sensitised guinea pigs; type: in vivo, guinea pig; settings: airstream concentration; inhaled route, 30 min aerosol before ovalbumin challenge; lavage 24 h after challenge
Method: (2) Antigen-induced lung eosinophil accumulation in sensitised guinea pigs.
Ovalbumin sensitised guinea pigs were dosed with mepyramine (1 mg/kg ip) to protect against anaphylactic bronchospasm. A compound of the invention was then given by the inhaled route (30 min breathing of an aerosol of the compound) immediately prior to ovalbumin challenge (30 min breathing of an aerosol generated from a 50 ug/ml solution of ovalbumin). Twenty four hours after challenge, the guinea pigs were killed and the lungs lavaged. Total and differential leucocyte counts were then obtained for the bronchoalveolar lavage fluid and the dose of test compound giving a 50% reduction in eosinophil accumulation (ED50) was determined (Sanjar et al. 1992).

[2] = molecular target: T1, adenosine 3 receptor (Homo sapiens, UniProt P0DMS8); experiment: Agonist activity against adenosine 3 receptor (CHO cells, forskolin-enhanced cAMP/SPAP reporter); type: cell-based; settings: CHO cells transfected with human receptor; forskolin-enhanced cAMP via SPAP; mean of all the versions tested
T1 sequence (P0DMS8 1-318): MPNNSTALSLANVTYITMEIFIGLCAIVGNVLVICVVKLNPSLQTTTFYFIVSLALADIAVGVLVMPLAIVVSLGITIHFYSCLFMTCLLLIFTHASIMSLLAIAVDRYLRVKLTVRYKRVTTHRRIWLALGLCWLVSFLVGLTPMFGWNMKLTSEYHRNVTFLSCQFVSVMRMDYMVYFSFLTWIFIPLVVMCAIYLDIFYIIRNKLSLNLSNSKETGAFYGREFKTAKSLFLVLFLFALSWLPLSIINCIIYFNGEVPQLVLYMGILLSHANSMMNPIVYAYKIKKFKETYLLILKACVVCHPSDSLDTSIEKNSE
Method: (§1) (1) Agonist activity against adenosine 2a, adenosine 1 and adenosine 3 receptor subtypes.
(§2) The effect of test compounds was determined by their effects on basal levels of cAMP (A2a) or on forskolin-enhanced cAMP (A1 and A3) as reflected by changes in levels of SPAP.

[3] = molecular target: adenosine 2a receptor (Homo sapiens, UniProt P29274); experiment: Agonist activity against adenosine 2a receptor (CHO cells, cAMP/SPAP reporter); type: cell-based; settings: CHO cells transfected with human receptor; basal cAMP via SPAP; mean of all the versions tested
Chain of adenosine 2a receptor (P29274 whole entry): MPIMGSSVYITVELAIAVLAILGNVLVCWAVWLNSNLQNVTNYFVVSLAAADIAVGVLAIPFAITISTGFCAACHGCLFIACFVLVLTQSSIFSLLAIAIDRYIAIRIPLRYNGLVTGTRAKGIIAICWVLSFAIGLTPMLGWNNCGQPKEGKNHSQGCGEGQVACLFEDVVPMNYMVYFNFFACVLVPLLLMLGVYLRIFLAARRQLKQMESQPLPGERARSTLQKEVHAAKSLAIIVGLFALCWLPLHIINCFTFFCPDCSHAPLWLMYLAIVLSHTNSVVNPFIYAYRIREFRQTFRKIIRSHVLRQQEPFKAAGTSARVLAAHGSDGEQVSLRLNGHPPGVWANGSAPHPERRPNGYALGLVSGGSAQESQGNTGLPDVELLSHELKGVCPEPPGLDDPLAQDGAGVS
Method: as §1, §2

[4] = molecular target: T2, adenosine 1 receptor (Homo sapiens, UniProt P30542); experiment: Agonist activity against adenosine 1 receptor (CHO cells, forskolin-enhanced cAMP/SPAP reporter); type: cell-based; settings: CHO cells transfected with human receptor; forskolin-enhanced cAMP via SPAP; mean of all the versions tested
T2 sequence (P30542 1-326): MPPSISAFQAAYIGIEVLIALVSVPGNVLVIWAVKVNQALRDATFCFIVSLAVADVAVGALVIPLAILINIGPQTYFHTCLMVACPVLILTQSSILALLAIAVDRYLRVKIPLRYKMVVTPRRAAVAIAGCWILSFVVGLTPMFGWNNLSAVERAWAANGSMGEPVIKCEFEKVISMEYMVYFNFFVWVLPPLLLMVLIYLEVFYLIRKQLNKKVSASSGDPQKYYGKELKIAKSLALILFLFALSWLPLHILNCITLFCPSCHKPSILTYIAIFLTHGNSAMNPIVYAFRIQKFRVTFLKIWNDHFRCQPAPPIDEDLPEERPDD
Method: as §1, §2

| Structure (SMILES) | ED50 (50% reduction in eosinophil accumulation) [1] [ng/mL] | A3 EC50 as a ratio of that of NECA [2] | A2a EC50 as a ratio of that of NECA [3] | A1 EC50 as a ratio of that of NECA [4] |
| --- | --- | --- | --- | --- |
| CCn1nnc([C@H]2O[C@@H](n3cnc4c(NCC(c5ccccc5)c5ccccc5)nc(N[C@H]5CC[C@H](N)CC5)nc43)[C@H](O)[C@@H]2O)n1.Cl.Cl (relative stereo) [Example 1a, rel-(2R,3R,4S,5R)-2-[2-(trans-4-Amino-cyclohexylamino)-6-(2,2-diphenyl-ethylamino)-purin-9-yl]-5-(2-ethyl-2H-tetrazol-5-yl)-tetrahydro-furan-3,4-diol Dihydrochloride] | 6 |  |  |  |
| CCn1nnc([C@H]2O[C@@H](n3cnc4c(N)nc(N[C@H](CO)Cc5ccccc5)nc43)[C@H](O)[C@@H]2O)n1.Cl [Example 11a, (2R,3R,4S,5R)-2-[6-Amino-2-(1S-hydroxymethyl-2-phenyl-ethylamino)-purin-9-yl]-5-(2-ethyl-2H-tetrazol-5-yl)-tetrahydro-furan-3,4-diol Hydrochloride] | 6 |  |  |  |
| CC(C)C(CO)Nc1nc(NCC(c2ccccc2)c2ccccc2)c2ncn(C3OC(c4nnn(C)n4)C(O)C3O)c2n1 [Example 99, (2R,3R,4S,5R)-2-[6-(2,2-Diphenyl-ethylamino)-2-(1S-hydroxymethyl-2-methyl-propylamino)-purin-9-yl]-5-(2-methyl-2H-tetrazol-5-yl)-tetrahydro-furan-3,4-diol Formate] |  | >130 | 4.82 | 87.00 |
